Experimental data taken from ChEMBL document CHEMBL5728358, “JAK1 selective inhibitors” (2021).

Molecular target: Tyrosine-protein kinase JAK1 (Homo sapiens, UniProt P23458)
Test: JAK enzyme was expressed as N-terminal GST fusion in insect cells and purified by glutathione-affinity and size-exclusion chromatographies. […] Phosphorylated and unphosphotylated peptides were separated and quantified by a Caliper LC3000 system (Caliper Life Sciences, MA) for calculating percent inhibition.
Format: organism-based

Tyrosine-protein kinase JAK1, sequence (P23458 whole entry, the tested form may be a part): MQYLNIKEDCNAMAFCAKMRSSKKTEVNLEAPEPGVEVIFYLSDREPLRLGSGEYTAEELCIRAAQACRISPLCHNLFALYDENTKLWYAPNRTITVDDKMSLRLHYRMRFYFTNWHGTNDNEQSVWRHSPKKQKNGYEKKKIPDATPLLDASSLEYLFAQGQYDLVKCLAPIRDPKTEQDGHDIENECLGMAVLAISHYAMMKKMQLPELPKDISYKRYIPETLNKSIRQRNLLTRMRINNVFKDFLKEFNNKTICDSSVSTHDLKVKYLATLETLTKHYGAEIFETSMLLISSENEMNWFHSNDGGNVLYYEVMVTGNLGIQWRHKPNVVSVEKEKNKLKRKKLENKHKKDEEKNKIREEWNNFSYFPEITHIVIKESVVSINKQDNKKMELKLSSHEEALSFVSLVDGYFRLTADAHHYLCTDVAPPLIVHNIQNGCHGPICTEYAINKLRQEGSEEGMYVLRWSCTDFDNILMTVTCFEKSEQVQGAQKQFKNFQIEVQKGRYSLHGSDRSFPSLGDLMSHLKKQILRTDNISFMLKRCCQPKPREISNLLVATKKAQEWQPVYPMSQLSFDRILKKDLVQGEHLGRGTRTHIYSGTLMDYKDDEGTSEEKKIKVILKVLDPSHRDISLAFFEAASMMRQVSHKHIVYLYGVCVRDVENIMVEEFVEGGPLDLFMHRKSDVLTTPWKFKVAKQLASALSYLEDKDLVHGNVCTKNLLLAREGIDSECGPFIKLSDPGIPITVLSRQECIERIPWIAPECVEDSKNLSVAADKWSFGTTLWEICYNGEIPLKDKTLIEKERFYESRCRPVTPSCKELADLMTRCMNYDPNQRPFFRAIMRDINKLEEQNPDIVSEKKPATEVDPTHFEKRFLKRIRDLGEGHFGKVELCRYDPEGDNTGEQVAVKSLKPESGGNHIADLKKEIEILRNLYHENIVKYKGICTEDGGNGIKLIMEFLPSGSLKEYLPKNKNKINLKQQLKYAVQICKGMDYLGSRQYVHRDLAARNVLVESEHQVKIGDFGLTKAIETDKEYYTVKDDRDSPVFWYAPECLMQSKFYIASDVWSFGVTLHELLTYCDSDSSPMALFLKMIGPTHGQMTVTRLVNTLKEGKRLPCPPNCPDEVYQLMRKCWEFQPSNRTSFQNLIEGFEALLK

IC50: 3.4 nM
Structure (SMILES): Cc1cnc(Nc2cccc(S(C)(=O)=O)c2F)nc1-c1c[nH]c2c(NC(=O)[C@@H](C)N3C[C@H](C)N[C@@H](C)C3)cccc12
